Laboratory results: ChEMBL document CHEMBL1123130 (J Med Chem, 1985)

target: T1, Progesterone receptor (Oryctolagus cuniculus, UniProt P06186); assay: Inhibition of [3H]R5020 binding to rabbit uterine progesterone receptor
T1 sequence (P06186 whole entry): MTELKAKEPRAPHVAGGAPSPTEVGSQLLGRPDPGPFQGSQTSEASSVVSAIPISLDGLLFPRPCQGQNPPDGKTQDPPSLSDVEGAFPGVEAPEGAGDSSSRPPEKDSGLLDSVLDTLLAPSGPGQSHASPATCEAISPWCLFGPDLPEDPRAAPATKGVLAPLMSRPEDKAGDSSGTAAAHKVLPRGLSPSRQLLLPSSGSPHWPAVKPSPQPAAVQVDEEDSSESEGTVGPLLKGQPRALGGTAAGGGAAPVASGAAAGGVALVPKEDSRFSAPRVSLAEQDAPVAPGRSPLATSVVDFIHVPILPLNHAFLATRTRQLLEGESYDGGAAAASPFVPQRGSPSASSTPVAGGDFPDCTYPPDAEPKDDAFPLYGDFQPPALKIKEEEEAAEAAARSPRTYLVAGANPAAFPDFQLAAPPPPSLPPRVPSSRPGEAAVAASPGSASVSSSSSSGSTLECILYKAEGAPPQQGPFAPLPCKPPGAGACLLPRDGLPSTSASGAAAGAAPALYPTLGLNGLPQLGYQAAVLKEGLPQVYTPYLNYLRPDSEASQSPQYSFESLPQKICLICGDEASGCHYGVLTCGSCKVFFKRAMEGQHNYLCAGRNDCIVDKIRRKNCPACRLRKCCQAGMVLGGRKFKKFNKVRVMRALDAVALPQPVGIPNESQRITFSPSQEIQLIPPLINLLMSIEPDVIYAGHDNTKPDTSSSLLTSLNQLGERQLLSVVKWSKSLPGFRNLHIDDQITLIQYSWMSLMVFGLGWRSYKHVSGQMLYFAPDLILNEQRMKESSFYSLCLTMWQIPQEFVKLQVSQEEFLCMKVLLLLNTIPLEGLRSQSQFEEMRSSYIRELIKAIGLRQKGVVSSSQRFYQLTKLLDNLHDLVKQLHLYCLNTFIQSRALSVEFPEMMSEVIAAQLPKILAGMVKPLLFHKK

Going from `CC12CCC3C4CCC(=O)C=C4CCC3C1CCC2(O)/C=C\I` (centres undefined) to `CC12CCC3C4CCC(=O)C=C4CCC3C1CCC2(O)/C=C/I` (centres undefined), the Ki falls from 4.26 nM to 1.81 nM (2.4-fold). The second binds more tightly here.

Compared with `C=C(I)C1(O)CCC2C3CCC4=CC(=O)CCC4C3CCC21C` (centres undefined), `CC12CCC3C4CCC(=O)C=C4CCC3C1C[C@@H](I)C2O` (some centres undefined) is 2-fold lower in Ki: 80.1 nM for the first, 39.8 nM for the second. The second binds more tightly here.
